Assay results published in PubChem BioAssay (NCI).
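Compound exposure: 48 hours, 5 concentrations, 96-well plates. Here, GI50 denotes the concentration required for 50% inhibition of growth. At the TGI there is no net growth.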 Where a SMILES comes first, the peptide text is derived from it. [ ]: non-standard residue; d: D form. The star is where a group is joined. X28 = COC1=CC(=O)N(C(=O)[C@@H](O*)C(C)C)[C@H]1Cc1ccccc1; NMeL = CN[C@@H](CC(C)C)C(=O)O; Cbz = O=C(OCc1ccccc1)*

Legend:
Assay in all cases: NCI tumour cell line growth inhibition, 48 h
KM20L2 colon = system: KM20L2 colon
MALME-3M melanoma = system: MALME-3M melanoma
IGROV1 ovarian = system: IGROV1 ovarian
NCI-H226 lung = system: NCI-H226 lung
SNB-19 CNS = system: SNB-19 CNS
TK-10 renal = system: TK-10 renal
SF-295 CNS = system: SF-295 CNS
SN12C renal = system: SN12C renal
OVCAR-8 ovarian = system: OVCAR-8 ovarian
T-47D breast = system: T-47D breast

SMILES	TGI (KM20L2 colon)	TGI (MALME-3M melanoma)	TGI (IGROV1 ovarian)	TGI (NCI-H226 lung)	TGI (SNB-19 CNS)	TGI (TK-10 renal)	TGI (SF-295 CNS)	TGI (SN12C renal)	TGI (OVCAR-8 ovarian)	TGI (T-47D breast)	GI50 (KM20L2 colon)	GI50 (NCI-H226 lung)	GI50 (SF-295 CNS)	GI50 (MALME-3M melanoma)	GI50 (IGROV1 ovarian)	GI50 (T-47D breast)	GI50 (SNB-19 CNS)	GI50 (TK-10 renal)	GI50 (SN12C renal)	GI50 (OVCAR-8 ovarian)
[N-]=[N+]=NC(c1cn(C2CC(O)C(CO)O2)c(=O)[nH]c1=O)C(I)I (configuration not stated)	> 100 µM	> 100 µM	> 100 µM	> 100 µM	> 100 µM	> 100 µM	> 100 µM	> 100 µM	> 100 µM											
N/C(=N\N=C/c1cc(Cl)cc(Cl)c1O)NO	30.2 µM	24 µM	44.3 µM	9.82 µM	> 53.9 µM		15.2 µM	33.4 µM	19 µM											
O=C(Cc1ccccc1)NN1C(=O)C(Cl)C1c1ccccc1 (configuration not stated)	> 100 µM	> 100 µM	> 100 µM	> 100 µM	> 100 µM	> 100 µM	> 100 µM	> 100 µM	> 100 µM											
CC[S+](C)c1ccc(-c2c3nc(c(-c4ccc([S+](C)CC)cc4)c4ccc([nH]4)c(-c4ccc([S+](C)CC)cc4)c4nc(c(-c5ccc([S+](C)CC)cc5)c5ccc2[nH]5)C=C4)C=C3)cc1 (configuration not stated)	> 100 µM	> 100 µM			> 100 µM		> 100 µM	60.4 µM	> 100 µM											
COC(=O)C[C@](O)(CCC(C)(C)O)C(=O)O[C@@H]1C(OC)=C[C@]23CCCN2CCc2cc4c(cc2[C@H]13)OCO4	0.74 µM	0.109 µM	0.506 µM	0.124 µM	0.28 µM		0.61 µM	1.07 µM	0.571 µM											
C=CC[C@@]1(C#N)C[C@H](C[C@]2(C#N)C[C@H](CCl)OC(C)(C)O2)OC(C)(C)O1	> 100 µM	> 100 µM	> 100 µM	> 100 µM	> 100 µM	> 100 µM	> 100 µM	> 100 µM	> 100 µM											
Nc1nc(SCc2ccccc2[N+](=O)[O-])c2[nH]cnc2n1	> 100 µM	> 67.4 µM	> 68.4 µM	97.5 µM	> 100 µM	> 62.7 µM	> 100 µM	> 100 µM	> 100 µM	74.1 µM										
O=c1cc(-c2ccc[nH]2)[nH]c2cc3c(cc12)OCO3	42.6 µM	> 100 µM	> 100 µM	> 100 µM	> 100 µM	> 100 µM	> 100 µM	> 100 µM	> 100 µM		20.1 µM	35.3 µM	33.8 µM							
O=C(O)[C@H]1NC[C@@H]2ON=C(Br)[C@@H]21		> 100 µM	> 100 µM	> 100 µM	> 100 µM	> 100 µM	> 100 µM	> 100 µM	> 100 µM	> 100 µM										
CCN(CC)CCNc1ccc2nnn3c4ccc(OC(C)=O)cc4c(=O)c1c23		16.3 µM	6.38 µM	7.62 µM	> 43.2 µM	16.7 µM	19.3 µM	15.8 µM	16.7 µM	31.1 µM										
COc1cc(C2c3cc4c(cc3OC(N3CCOCC3)C2C)OCO4)cc(OC)c1OC (configuration not stated)		> 100 µM	47.7 µM	11.2 µM	18.7 µM	63.9 µM	10.4 µM	> 100 µM	59.2 µM	> 100 µM										
Cn1c2cc(Cl)ccc2c2ccc3c(c21)C(=O)C=CC3=O		33.4 µM	> 63.1 µM	> 100 µM	> 100 µM	56.6 µM	> 100 µM	21.2 µM	> 100 µM	55.6 µM										
C/C=C/COc1cc(NC(=S)c2ccoc2C)ccc1OC		> 100 µM	> 100 µM	> 100 µM	> 100 µM	> 100 µM	> 100 µM	> 100 µM	> 100 µM	> 100 µM										
CCOC(=O)CCc1c(C)c2c(O)cc(O)cc2oc1=O	> 100 µM	> 100 µM	> 100 µM	> 100 µM	> 100 µM		> 100 µM	> 100 µM	> 100 µM											
O=C(O)C1Cc2ccccc2OC1=O (configuration not stated)		> 100 µM	> 100 µM	> 100 µM	> 100 µM	> 100 µM	> 100 µM	> 100 µM	> 100 µM	> 100 µM										
CNc1nc(=O)c(C#N)c(-c2ccc(C)cc2)s1		> 100 µM	> 100 µM	> 100 µM	> 100 µM	> 100 µM	> 100 µM	> 100 µM	> 100 µM	> 100 µM										
CC(C(O)c1ccccc1)[N+](=O)[O-] (configuration not stated)		48.4 µM	34.4 µM	48.3 µM	66 µM	72 µM	61.4 µM	35.6 µM	35 µM	59.5 µM										
OC1NC2CC3NC(O)C(O)NC3CC2NC1O (configuration not stated)		> 100 µM	> 100 µM	> 100 µM	> 100 µM	> 100 µM	> 100 µM	> 100 µM	> 100 µM	> 100 µM										

SMILES	TGI (KM20L2 colon)	TGI (MALME-3M melanoma)	TGI (IGROV1 ovarian)	TGI (NCI-H226 lung)	TGI (SNB-19 CNS)	TGI (TK-10 renal)	TGI (SF-295 CNS)	TGI (SN12C renal)	TGI (OVCAR-8 ovarian)	TGI (T-47D breast)	GI50 (KM20L2 colon)	GI50 (NCI-H226 lung)	GI50 (SF-295 CNS)	GI50 (MALME-3M melanoma)	GI50 (IGROV1 ovarian)	GI50 (T-47D breast)	GI50 (SNB-19 CNS)	GI50 (TK-10 renal)	GI50 (SN12C renal)	GI50 (OVCAR-8 ovarian)
O=C(OCc1c(-c2ccccc2)nn(-c2ccccc2)c1COC(=O)Oc1ccccc1)Oc1ccccc1		> 100 µM	> 100 µM	> 100 µM	> 100 µM	> 100 µM	> 100 µM	> 100 µM	> 100 µM	> 100 µM										
CCNC(=O)CCCCC(=O)c1c(C)[nH]c(/C=C2\N=C(c3ccc[nH]3)C=C2OC)c1C		5.74 µM	> 100 µM	41.1 µM	19.2 µM	5.37 µM	7.6 µM	6.16 µM	7.73 µM	6.43 µM		20.3 µM	2.81 µM	2.32 µM	3.82 µM	2.68 µM	6.74 µM	2.37 µM	2.47 µM	2.96 µM
CCOC(=O)c1[nH]n(-c2ccccc2)c(=O)c1C=NC(=S)C(N)=S		> 100 µM	> 100 µM	> 100 µM	> 100 µM	> 100 µM	> 100 µM	> 100 µM	> 100 µM	41.8 µM										
C/C(=N\Nc1ncnc2ccccc12)c1ccccn1		1.58 µM	2.84 µM	1.13 µM	59.1 µM	18.6 µM	17.9 µM	6.71 µM	2.41 µM	20.7 µM										
CCOc1ccc(C(c2c(O)c3ccccc3oc2=O)c2c(O)c3ccccc3oc2=O)cc1		> 100 µM	> 100 µM	> 100 µM	> 100 µM	> 100 µM	> 100 µM	> 100 µM	> 100 µM	> 100 µM										
N#CCCCCC12C3C(=O)N(c4ccccc4)C(=O)C3ON1O[C@@H]1C(=O)N(c3ccccc3)C(=O)[C@@H]12 (some centres not stated)		> 100 µM	> 100 µM	> 100 µM	> 100 µM	> 100 µM	> 100 µM	> 100 µM	> 100 µM	> 100 µM										
CCOC(=O)CC(=Nc1cc(C)on1)N(CC)CC	> 100 µM	> 100 µM	> 100 µM	> 100 µM	> 100 µM	> 100 µM		> 100 µM	> 100 µM											
Cc1ccc(C(=O)NC(C)C)cc1N=NN(C)C	> 100 µM		> 100 µM		> 100 µM	> 100 µM	> 100 µM	> 100 µM	> 100 µM											
COC(=O)C(Cc1ccccc1)NC(=O)C(CCCN=C(N)N)NC(=O)OCc1ccccc1 (configuration not stated)		> 100 µM	> 100 µM	> 100 µM	> 100 µM	> 100 µM	> 100 µM	> 100 µM	> 100 µM	> 100 µM										
O=C(Nc1cc([N+](=O)[O-])cc([N+](=O)[O-])c1)OC1C2CCC1C1OC1C2 (configuration not stated)	> 50 µM	> 50 µM	> 50 µM		> 50 µM	> 50 µM	> 50 µM		> 50 µM											
CC1(C)N=C(/C(C#N)=[N+](/[O-])C(=O)c2ccccc2)C(C)(C)N1O		> 100 µM	> 100 µM	> 100 µM	> 100 µM	> 100 µM	> 100 µM	> 100 µM	> 100 µM	> 100 µM										
COC1=CC(=O)N(C(=O)[C@@H](OC(=O)[C@@H]2CCCN2C(=O)[C@@H]2CCCN2C(=O)[C@H](CC(C)C)N(C)C(=O)[C@@H](NC(=O)[C@@H](NC(=O)OCc2ccccc2)C(C)C)C(C)C)C(C)C)[C@H]1Cc1ccccc1 (Cbz-VV[NMeL]PP-X28)		> 100 µM	> 100 µM	> 100 µM	> 100 µM	> 100 µM	> 100 µM	> 100 µM	> 100 µM	> 100 µM										
COc1ccc2c(c1)Cc1c-2[nH]c2cc3c(cc2c1=O)OCO3	35 µM	42.8 µM	59.5 µM	94.3 µM	> 100 µM	83.3 µM	51.7 µM	> 100 µM	> 100 µM											
Cc1cc(NS(=O)(=O)c2ccc(NC(=O)c3cccc4c(NNc5ccc(S(N)(=O)=O)cc5)c5ccccc5nc34)cc2)no1		> 100 µM	> 100 µM	91.7 µM	> 100 µM	> 100 µM	> 100 µM	> 100 µM	> 100 µM	> 100 µM										
O=C(O)C1(CC(CCCN2CCCCC2)c2ccccc2)CCCC1 (configuration not stated)		> 100 µM	> 100 µM	> 100 µM	> 100 µM	> 100 µM	> 100 µM	> 100 µM	> 100 µM	> 100 µM										
COc1cc(C(=O)OC2CC(C)=CC[C@@]3(C)CC[C@](O)(C(C)C)C23)ccc1O (some centres not stated)		34.3 µM	33.4 µM	32.5 µM	35.8 µM	30.1 µM	51.9 µM	37.2 µM	36.6 µM	47.6 µM										
CCN(CC)CCNC(=O)c1cc2cc(NC(=O)c3cc4cc(NC(=O)c5cc6cc([N+](=O)[O-])ccc6[nH]5)ccc4[nH]3)ccc2[nH]1		> 100 µM	> 100 µM	> 100 µM	> 100 µM	> 100 µM	> 100 µM	> 100 µM	> 100 µM	> 100 µM										
